Reference: patent US4711898A, “4-quinolone derivatives having anti-inflammatory, anti-allergic, antitussive, expectorant and antithrombotic activity” (Nippon Shinyaku Co., Ltd., priority 1982, dated 1987)

What was measured:
[1] = system: passive cutaneous anaphylaxis (DNP-As homocytotropic antiserum); experiment: passive cutaneous anaphylatic assay (PCA) in rats; assay type: in vivo, Wistar strain rats; settings: 10 mg/kg orally, one hour before antigen; for PCA Inhibition Ratio %: Na salt; for inhibition in vivo at 10 mg/kg: Rattus norvegicus, po, 1 h, read-out: PCA Inhibition Ratio %
Description: (§1) The compounds of the present invention have been evaluated for their anti-allergenic action by passive cutaneous anaphylatic assay (PCA) in rats and by measuring the anti-SRS-A action using ileus of guinea pigs.
(i) Antiserum abundant in homocytotropic antibody is prepared by the same method as Tada and Okumura did (cf. Journal of Immunology, vol. 106, page 1002, 1971). Thus, 1 mg (calculated as an amount of protein) of DNP-As (2,4-dinitrophenylcoupled ascaris extract) prepared by methods of Strejan and Campbell (Journal of Immunology, vol. 98, p. 893, 1967) and of Eisen (Journal of Amer. Chem. Soc., vol. 75, p 4593, 1953) and 1×10^10pertussis vaccine are administered to each paw of Wistar strain rats (180 to 200 grams body weights) by dividing the dose by four. Five days later, 0.5 mg of DNP-As is administered into muscle of back. Eight days later from the initial immunization, blood is taken from discending aorta under anesthetizing with ether, the resulting serum is stored at -80° and is melted before use.
(ii) Effect of tested compounds is investigated as follows:
Anti-serum obtained by th method (i) is diluted with physiological saline solution double by double successively and 0.05 ml of each diluted solution is administered into the back of Wistar strain rats (140 to 160 grams body weight) intradermally. After 72 hours, a solution of 2 mg (calculated as protein) of DNP-As and 2.5 mg of Evans Blue dissolved in 1 ml of physiological saline solution is administered intraveously at a dose of 5 ml/kg. After 30 minutes from the antigen solution administration, the animals are killed and the diameters of blue spots which appeared at the place where antiserum was administered were measured. The PCA test is conducted by the same method as already described using a diluted solutions of antiserum which always show 10 mm or more of spot diameters and the effect of the test compounds is judged. Thus antiserum diluted solutions are administered into two places in the back. Test compounds are administered orally at the dose of 10 mg/kg one hour before administration of the antigen solution. From the skin of reacted parts of killed animals, leaked or emitted dyestuff is extracted and the amount of the dyestuff is measured. The inhibition ratio is calculated by the following expression: [formula] in which A' is an amount of dyestuff in the group treated with the test compounds and A is that in the control group.

[2] = system: SRS-A (slow reacting substance of anaphylaxis) contraction of ileum; experiment: Anti-SRS-A action using ileus of guinea pigs; assay type: cell-based, Hartley strain male guinea pigs; settings: guinea pig ileum, SRS-A 20 units, compound five minutes before, 5 min; for 1/1000 mM SRS-A Inhibition Ratio %: Na salt, 1 µM; for inhibition at 1 µM: Cavia porcellus, 1/1000 mM, read-out: 1/1000 mM SRS-A Inhibition Ratio %
Description: as §1
Anti-SRS-A action (An anti-acton against slow reacting substance of anaphylaxis).
Hartley strain male guinea pigs (300 to 350 grams body weight) are killed and 1.0 to 1.5 cm of ileum is immeidiately excised from ileocecal parts and is suspended in 10 ml of Tyrode solution (95% 02 -5% CO2 saturation) containing 10^-7 g/ml of atropine and 10^-6 g/ml of pyrilamine. SRS-A (20 units) (the amount of SRS-A showing the same contradiction as 5 ng of histamine is defined as 1 unit) prepared by using sensitized guinea pig lung is given to cause contraction there. Then antagonistic action of test compounds treated five minutes ago against the contraction is measured and recorded via isotonic transducer. [formula] in which A' is a height of contraction of SRS-A+test compound and A is that of SRS-A.

Row | Structure (SMILES) | inhibition in vivo at 10 mg/kg [1] [%] | inhibition at 1 µM [2] [%] | also measured
1 | O=C(O)c1ccc2[nH]c(-c3cccc(Cl)c3)cc(=O)c2c1 [Example 31] | – | – | PCA Inhibition Ratio % ([1]; listed as 3-Chloro): 24.4%; 1/1000 mM SRS-A Inhibition Ratio % ([2]; listed as 3-Chloro): 25.5%
2 | CCOC(=O)c1cccc2c(=O)cc(-c3ccc(C)c(C)c3)[nH]c12 [Example 105] | 17.3 | 10.4 | –
3 | CCc1ccccc1-c1cc(=O)c2cc(C(=O)O)ccc2[nH]1 [Example 45] | 24.2 | 25.4 | –
4 | COC(=O)c1ccc2[nH]c(-c3ccc(C)cc3C)cc(=O)c2c1 [Example 54] | 18.9 | 22.4 | –
5 | O=C(O)c1ccc2[nH]c(-c3cccnc3)cc(=O)c2c1 [Example 73] | 20.4 | 23.8 | –
6 | Cc1ccc(-c2cc(=O)c3cccc(C(=O)O)c3[nH]2)cc1 [Example 93] | 23.5 | 26.7 | –
7 | CCOc1ccccc1-c1cc(=O)c2cc(C(=O)OC)ccc2[nH]1 [Example 58] | 23.1 | 63 | –
8 | O=C(O)c1cccc2c(=O)cc(-c3cccc(Cl)c3)[nH]c12 [Example 87] | 19.3 | 20.7 | –
9 | CCCCCCCCc1ccc(-c2cc(=O)c3cccc(C(=O)O)c3[nH]2)cc1 [Example 97] | 22 | 33.7 | –
10 | O=C(O)c1ccc2[nH]c(-c3ccc(Cl)cc3)cc(=O)c2c1 [Example 33] | 22.3 | 22.5 | –
11 | CC(=O)COC(=O)c1cccc2c(=O)cc(-c3ccccc3Cl)[nH]c12 [Example 122] | 14.7 | 20.4 | –
12 | O=C(OCCCCCCO)c1cccc2c(=O)cc(-c3ccccc3Cl)[nH]c12 [Example 117] | 50 | 8.7 | –
13 | COC(=O)c1ccc2[nH]c(-c3cccnc3)cc(=O)c2c1 [Example 72] | 17.8 | 22 | –
14 | CCCn1c(-c2ccccc2)cc(=O)c2cc(C(=O)OC)ccc21 [Example 15] | 19.7 | 65.3 | –
15 | COC(=O)c1cccc2c1N=C(c1ccccc1Cl)CC2=O [Example 101, Methyl 2-(2-chlorophenyl)-4-quinolone-8-carboxylate] | 17.4 | 14.7 | –
16 | COC(=O)c1ccc2[nH]c(-c3ccc(OC)cc3)cc(=O)c2c1 [Example 62] | 19 | 27.4 | –
17 | O=C(O)c1ccc2[nH]c(-c3ccccc3Cl)cc(=O)c2c1 [Example 23] | – | – | PCA Inhibition Ratio % ([1]; listed as 2-Chloro): 18.7%; 1/1000 mM SRS-A Inhibition Ratio % ([2]; listed as 2-Chloro): 24.9%
18 | O=C(O)c1ccc2[nH]c(-c3cc(Cl)ccc3Cl)cc(=O)c2c1 [Example 40] | 25.4 | 27.5 | –
19 | O=C(O)c1ccc2[nH]c(-c3ccc(Cl)cc3Cl)cc(=O)c2c1 [Example 36] | – | – | PCA Inhibition Ratio % ([1]; listed as 2,4-Dichloro): 20.4%; 1/1000 mM SRS-A Inhibition Ratio % ([2]; listed as 2,4-Dichloro): 14.5%
20 | CCc1ccccc1-c1cc(=O)c2cc(C(=O)OC)ccc2[nH]1 [Example 44] | 18 | 41.3 | –
21 | CC(C)c1ccc(-c2cc(=O)c3cc(C(=O)O)ccc3[nH]2)cc1 [Example 49] | 25.2 | 18.8 | –
22 | COc1ccc(-c2cc(=O)c3cccc(C(=O)OCCO)c3[nH]2)cc1OC [Example 140] | 19.4 | 18.3 | –
23 | Cc1ccc(-c2cc(=O)c3cc(C(=O)O)ccc3[nH]2)c(C)c1 [Example 55] | 16.8 | 17.5 | –
24 | COC(=O)c1cccc2c(=O)cc(-c3ccc(Cl)cc3Cl)[nH]c12 [Example 88] | 17.5 | 45.5 | –

Row | Structure (SMILES) | inhibition in vivo at 10 mg/kg [1] [%] | inhibition at 1 µM [2] [%] | also measured
25 | Cc1ccc(-c2cc(=O)c3cccc(C(=O)OCCO)c3[nH]2)cc1 [Example 135] | 35 | 27.3 | –
26 | CCOC(=O)c1cccc2c(=O)cc(-c3ccc(OC)cc3)[nH]c12 [4-Methoxy, Ethyl] | 3.2 | 20.3 | –
27 | Cc1ccc(-c2cc(=O)c3cccc(C(=O)O)c3[nH]2)c(C)c1 [Example 95] | 24.2 | 22.8 | –
28 | O=C(O)c1cccc2c(=O)cc(-c3ccc(Cl)cc3Cl)[nH]c12 [Example 90] | 23.4 | 53.6 | –
29 | COC(=O)c1ccc2[nH]c(-c3ccc(C(C)C)cc3)cc(=O)c2c1 [Example 48] | 26.4 | 24.2 | –
30 | CCOCCOCCOC(=O)c1cccc2c(=O)cc(-c3ccccc3Cl)[nH]c12 [Example 129] | 5.4 | 10.2 | –
31 | O=C(OCC(O)CO)c1cccc2c(=O)cc(-c3ccccc3Cl)[nH]c12 (stereo not shown) [Example 126] | 15.3 | 19.2 | –
32 | CC(C)OC(=O)c1ccc2c(c1)C(=O)CC(c1ccccc1)=N2 [Example 5, Isopropyl 2-phenyl-4-quinolone-6-carboxylate] | 26.2 | 36.7 | –
33 | COC(=O)c1ccc2[nH]c(-c3ccccn3)cc(=O)c2c1 [Example 74] | 23.1 | 25 | –
34 | O=C(OCCCCCO)c1cccc2c(=O)cc(-c3ccccc3Cl)[nH]c12 [Example 116] | 15 | 23.7 | –
35 | C=CCc1c(-c2ccccc2)[nH]c2ccc(C(=O)O)cc2c1=O [Example 12] | 17.5 | 22.3 | –
36 | COC(=O)c1ccc2[nH]c(-c3cccc(C(F)(F)F)c3)cc(=O)c2c1 [Example 52] | 25 | 21.3 | –
37 | Cc1ccc(-c2cc(=O)c3cccc(C(=O)OCCO)c3[nH]2)cc1C [Example 137] | 20 | 10.8 | –
38 | COc1ccccc1C1=Nc2ccc(C(=O)O)cc2C(=O)C1 [Example 57, 2-(2-methoxyphenyl)-4-quinolone-6-carboxylic acid] | 20.4 | 27.7 | –
39 | CCOC(=O)COC(=O)c1cccc2c(=O)cc(-c3ccccc3Cl)[nH]c12 [Example 123] | 16 | 17.4 | –
40 | COC(=O)c1ccc2c(c1)C(=O)C(C)C(c1ccccc1)=N2 (stereo not shown) [Example 9, Methyl 3-methyl-2-phenyl-4-quinolone-6-carboxylate] | 26.8 | 54.8 | –
41 | O=C(O)c1ccc2[nH]c(-c3ccccc3Br)cc(=O)c2c1 [Example 25] | 17.2 | 25.7 | –
42 | O=C(OCCc1ccccc1)c1ccc2c(c1)C(=O)CC(c1ccccc1)=N2 [Example 6, Phenethyl 2-phenyl-4-quinolone-6-carboxylate] | 24.3 | 22.8 | –
43 | CCCCCc1ccc(-c2cc(=O)c3cc(C(=O)O)ccc3[nH]2)cc1 [Example 51] | 22.7 | 61.4 | –
44 | COC(=O)c1ccc(-c2cc(=O)c3cc(C(=O)OC)ccc3[nH]2)cc1 [Example 68] | 19.8 | 36.8 | –
45 | COC(=O)c1ccc2[nH]c(-c3ccc(Cl)cc3Cl)cc(=O)c2c1 [Example 34] | 17.4 | 19.3 | –
46 | CCCCCCCCc1ccc(-c2cc(=O)c3cccc(C(=O)OCC)c3[nH]2)cc1 [Example 96] | 21.5 | 23.8 | –
47 | O=C(O)c1ccc2[nH]c(-c3ccccn3)cc(=O)c2c1 [Example 75] | 20.4 | 28.9 | –
